Measured values reported in patent publication US11578013B2, “Nitrification inhibitors” (Lincoln University, priority 2020, dated 2023).

Key:
[1] = system: N2O emissions in the soil; assay: Field study of nitrous oxide emissions, static gas chamber method, urine-treated pasture soil; conditions: for nitrous oxide reductions compared with DCD: sprayed onto urine-treated pasture soil
Experimental: (§1) This study was conducted on the Lincoln University Research Dairy Farm, and the soil was a Templeton sandy loam with established perennial ryegrass (Lolium perenne) and white clover (Trifolium repens.) pasture. Metal rings (500 mm diameter and 200 mm height) were inserted into the ground. A water trough sitting on top of the metal rings allowed the placement of static chambers sitting on top of the water trough to provide a gas-tight seal to allow N2O gas sampling.
Synthetic urine with a nitrogen concentration of 7 g N/L was applied to the soil plots confined within the metal rings at the equivalent rate of 700 kg N/ha. […] The plots were irrigated with irrigation water in accordance with local dairy farming practice.
(§2) The gas chamber (500 mm diameter and 120 mm height) was constructed of a metal cylinder insulated with 2.5 cm thick polystyrene foam to avoid heating of the atmosphere in the chamber during sampling. During periods of N2O measurement, the edge of the chamber was placed inside the small water trough which was mounted around the top of each metal ring for gas sampling. At each sampling time, the chamber was placed on top of the soil ring for a total of 40 minutes, and 3 samples, 20 minutes apart, were taken using a syringe through a rubber septum on top of the gas chamber. Samples were taken twice weekly. Each sampling was carried out during the middle of the day between 12:00 h to 14:00 h (Di et al., 2007). The N2O concentration in the samples was analysed using a gas chromatograph (SRI8610C with an Electron Capture Detector (ECD) (SRI Instruments, USA) linked to a Gilson 222XL autosampler (Gilson, France)
as §1, with “To determine the effect of treating the soil with 2-ethynyl-5-methoxypyridine on nitrous oxide emissions under field soil conditions, a field study was conducted using the static gas chamber method. This” for “This”
Synthetic urine with a nitrogen concentration of 7 g N/L was applied to the soil plots confined within the metal rings at the equivalent rate of 700 kg N/ha. 196.25 mg or 39.2 mg of 2-ethynyl-5-methoxypyridine were dissolved in 2 mL DMSO, mixed with 1000 mL of water, and then sprayed on to the mini-plots at the rates of 196.25 mg/plot and 39.2 mg/plot, equivalent to 10 kg/ha and 2 kg/ha, respectively. The plots were irrigated with irrigation water in accordance with local dairy farming practice.
as §2, with “France).” for “France)”
To determine the effect of treating the soil with 3-ethynylpyridine 1-oxide on nitrous oxide emissions under field soil conditions, a field study was conducted using the static gas chamber method. […]

[2] = system: nitrification in the soil; assay: Laboratory soil incubation, Templeton sandy loam with synthetic cow urine, nitrate-N; conditions: for % reduction by NI (nitrate-N): vs urine alone, 30 days; for reducing the nitrification rate compared with DCD: compound at 2 kg/ha vs DCD at 10 kg/ha; for reducing the nitrification rate compared with DCD / nitrate-N concentration in the soil compared with urine alone or urine+DMSO: day 30; for Nitrate-N: 30 days of incubation
Experimental: A Templeton sandy loam was used in this experiment. 500 g of soil (dry weight basis) was packed into a pottle. 50 mL of synthetic cow urine with an N concentration of 7 g N/L (comprising about 87% urea-N and 13% glycine-N) was applied to the soil (equivalent to 700 kg N/ha on weight basis, assuming bulk density of 1 g/cm^3 in the top 10 cm of soil). The 700 kg N/ha application was used to simulate the urine-N application rate under a typical dairy cow urine patch in a grazed pasture.
Control treatments also added to soil were: • urine alone (50 mL); • DMSO (equivalent to 0.9 mL/500 g soil)+urine (50 mL) to determine the effect of DMSO on nitrification rate; • water alone (50 mL) (simulating areas of the soil where no urine was deposited).
Pottles were covered with lids with breathing holes to allow for gas exchange during incubation. Pottles were incubated at 12° C. Soil moisture content was maintained at field capacity by adjusting on weight basis twice a week.
Soil samples were collected and were then thoroughly mixed and subsamples were extracted in a potassium chloride solution and analysed for mineral-N. Soil moisture content was also determined. Samples were taken at 30 days after the start of incubation. […]

nitrification = assay: Table 1 summary: compounds found to work or not work as nitrification inhibitors, Inhib(%); design: concentration or dose not given beside the values; conditions: test and rate not given
Experimental: The phenotypic screening involved assessing the nitrification inhibition potency of the selected 5000 compounds against a key ammonia oxidizing bacterium responsible for ammonia oxidation in the soil, Nitrosomonas europaea, in 96-well microtiter plates. N. europaea cells were grown in the presence of an ammonium source, and the potential of putative nitrification inhibitors to inhibit the production of nitrite (NO2) was measured relative to untreated cells.
A summary of selected compounds initially found to either work or not work as nitrification inhibitors is detailed in Table 1 below.

rats = conditions: female rats; cited from earlier work
[3] = system: nitrification in the soil; assay: Soil column study with static gas chambers (Study 2-14): nitrate-N and N2O emissions; conditions: 10 kg/ha sprayed to soil surface, soil column
Experimental: To determine the effect of treating the soil with 4-Ethynylanisole on nitrification rate and nitrous oxide emissions, soil column studies with static gas chambers were conducted. The experiment was conducted in cylindrical PVC containers (Diameter=186 mm, Height=240 mm). The containers were filled with soil to half of the container's height (120 mm), leaving 120 mm headspace. The soil was Templeton sandy loam collected from Lincoln University Research Dairy Farm. It was screened using a 5 mm sieve and air-dried to the required moisture level and packed to bulk density of 1 g/cm3.
The experiment was conducted under controlled conditions. The temperature of the soil columns were maintained at around 12° C. by using a water bath to control the temperature.
The treatments included Control (Water), Control (animal urine), Control (urine+DMSO), Control (urine+DCD at 10 kg/ha) and urine+4-Ethynylanisole (10 kg/ha) in DMSO. Synthetic cow urine was applied at 700 kg N/ha (comprising about 87% urea-N and 13% glycine-N), and 4-Ethynylanisole was applied at 10 kg/ha. There were two sets of cores for each treatment, one set were fitted with static gas chambers with removable lids for nitrous oxide sampling, and the other set used for soil sampling. The urine was sprayed to the surface of the soil simulating urine deposition by a grazing animal; DMSO, or DCD or 4-Ethynylanisole mixed with DMSO was also sprayed onto the urine treated soils to simulate the treatment of urine patches. Nitrous oxide gas measurements followed these treatments—as is detailed further below.
For the soil columns that were set up for taking soil samples for analysis of mineral nitrogen, the different treatments were mixed with the soil for soil sampling. Soil moisture was adjusted to 100% field capacity (FC) and maintained between 80 and 100% FC over the duration of the experiment.
Nitrous oxide (N2O) gas sampling was conducted twice a week using the standard procedure (Di et al., 2007). Vials were evacuated prior to sampling. Three gas samples were taken with 20 minute intervals between each sampling. Sampling frequency was reduced to once a week when N2O fluxes decreased in intensity.
Soil sampling was conducted on Day 1, 7, 14, 30, and 60. The soil samples were analysed for mineral nitrogen.

[4] = relative to table salt; cited from earlier work

melting point | Structure (SMILES) | nitrous oxide reductions compared with DCD [1] | N2O emissions ([1]; urine + inhibitor at 2 kg/ha) | N2O emissions ([1]; urine + inhibitor at 10 kg/ha) | % reduction by NI (nitrate-N) ([2]; 0.5 kg/ha) | % reduction by NI (nitrate-N) ([2]; 1 kg/ha) | % reduction by NI (nitrate-N) ([2]; 2 kg/ha) | reducing the nitrification rate compared with DCD [2] | Nitrate-N ([2]; urine + inhibitor at 0.5 kg/ha) | Nitrate-N ([2]; urine + inhibitor at 1 kg/ha) | Nitrate-N ([2]; urine + inhibitor at 2 kg/ha) | Inhib(%) (nitrification) | nitrate-N concentration in the soil compared with urine alone or urine+DMSO ([2]; 1 kg/ha) | nitrate-N concentration in the soil compared with urine alone or urine+DMSO ([2]; 2 kg/ha) | % reduction by NI (N2O emissions) ([1]; 2 kg/ha, vs urine alone) | oral LD50 (rats) | N2O—N emissions lower than urine alone control [3] | toxicity rating [4] | nitrate-N concentration in the soil compared with urine alone or urine+DMSO ([2]; 0.5 kg/ha)
– | C#Cc1cncnc1 [3-Ethynyl 1,5 Diazine, 5-Ethynylpyrimidine] | greater than that by DCD | 0.89 kg N2O—N/ha | 0.92 kg N2O—N/ha | 70% | 97% | 84% | more effective than DCD | 118.1 mg N/kg soil | 13.3 mg N/kg soil | 31.6 mg N/kg soil | 95% | – | – | – | – | – | – | –
56.2 to 57.2 °C | C#Cc1ncc(OC)cn1 [2-Ethynyl-5-methoxypyrimidine] | – | – | – | – | – | – | more effective than DCD | – | – | – | – | lower nitrate-N concentrations | significantly lower nitrate-N concentrations | – | – | – | – | –
– | C#Cc1ncccn1 [2-Ethynyl 1,3 Diazine, 2-Ethynylpyrimidine] | greater than that by DCD | 1.2 kg N2O—N/ha | 0.53 kg N2O—N/ha | 96% | 98% | 84% | more effective than DCD | 17.5 mg N/kg soil | 9.1 mg N/kg soil | 31.8 mg N/kg soil | 94% | – | – | 91% | – | – | – | –
– | N#CNC(=N)N [DCD, dicyandiamide] | – | – | – | – | – | – | – | – | – | – | – | – | – | – | greater than 30,000 mg kg^−1 body weight | 43.4% | 10 times less toxic than table salt | –
51.7 to 53.1 °C | C#Cc1ccc(OC)nn1 [3-Ethynyl-6-methoxypyridazine] | – | – | – | – | – | – | – | – | – | – | – | lower nitrate-N concentrations | lower nitrate-N concentrations | – | – | – | – | –
– | C#Cc1ccc[n+]([O-])c1 [3-ethynylpyridine 1-oxide] | greater than that by DCD | 3.6 kg N2O—N/ha | 0.79 kg N2O—N/ha | 43% | 96% | 97% | more effective than DCD | 224.4 mg N/kg soil | 20.8 mg N/kg soil | 8.2 mg N/kg soil | 100% | lower nitrate-N concentrations | significantly lower nitrate-N concentrations | – | – | – | – | lower nitrate-N concentrations
41.3 to 42.7 °C | C#Cc1cnc(OC)cn1 [2-Ethynyl-5-methoxypyrazine] | – | – | – | – | – | – | – | – | – | – | – | lower nitrate-N concentrations | lower nitrate-N concentrations | – | – | – | – | –
82.3 to 83.1 °C | C#Cc1cnc(OC)nc1 [5-Ethynyl-2-methoxypyrimidine] | – | – | – | – | – | – | – | – | – | – | 100% | lower nitrate-N concentrations | lower nitrate-N concentrations | – | – | – | – | –
– | C#Cc1ccc(OC)cn1 [2-ethynyl-5-methoxypyridine] | greater than that by DCD | 2 kg N2O—N/ha | 2 kg N2O—N/ha | 93% | 97% | 78% | more effective than DCD | 28.6 mg N/kg soil | 13.8 mg N/kg soil | 100 mg N/kg soil | 100% | lower nitrate-N concentrations | significantly lower nitrate-N concentrations | – | – | – | – | lower nitrate-N concentrations
